Reference: PubChem BioAssay AID2060626 (Molecular Pharmacology Branch, DTP, NCI, 2025)

System: 168753-222-R-J1-PDC complex spheroid viability
Test: Anticancer human tumor 168753-222-R-J1-PDC patient-derived bladder carcinoma cell line growth inhibition [CLK]
Conditions: for IC50: curve of first compound; for viability, T/C: stronger effect = lower value
How it was run: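 Patient-derived tumor cells grown as complex spheroids with HUVEC endothelial cells and mesenchymal stem cells, treated with drug combinations. Concentrations descend in half-log steps from near clinical Cmax, or from 10 microM if Cmax unknown.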
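Note: viability measured after seven days of drug exposure.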
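Throughout, for viability, T/C: luminescence signal used as surrogate for viable cell amount; 100% = DMSO vehicle control wells.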

With `COc1cccc2c1C(=O)c1c(O)c3c(c(O)c1C2=O)CC(O)(C(=O)CO)CC3OC1CC(N)C(O)C(C)O1` (configuration not stated) + CN1CCN(c2cc(C(=O)Nc3cc4cc(-c5cnn(C)c5)ccc4cn3)ccn2)CC1 as the molecule, how does the IC50 (second compound 0.0316 µM) read?
The IC50 was 33.1 nM.

What about the IC50 (second compound 0.1 µM) of the same molecule?
Its IC50 is under 31.6 nM.

And the IC50 (second compound 0.316 µM)?
Its IC50 is under 31.6 nM.

And the IC50 (second compound 1 µM)?
Its IC50 is under 31.6 nM.

What about the IC50 (second compound 3.16 µM) of the same molecule?
Its IC50 is under 31.6 nM.

And the IC50 (second compound 10 µM)?
Its IC50 is under 31.6 nM.

What about the viability, T/C (second compound 0.0316 µM, first compound 0.0316 µM) of the same molecule?
Its viability, T/C is 51.4%.

What about the viability, T/C (second compound 0.0316 µM, first compound 0.1 µM) of the same molecule?
Its viability, T/C is 31.8%.

What about the viability, T/C (second compound 0.0316 µM, first compound 0.316 µM) of the same molecule?
The viability, T/C was 23.1%.

What about the viability, T/C (second compound 0.0316 µM, first compound 1 µM) of the same molecule?
Its viability, T/C is 6.97%.

What about the viability, T/C (second compound 0.0316 µM, first compound 3.16 µM) of the same molecule?
The viability, T/C was 7.48%.

And the viability, T/C (second compound 0.0316 µM, first compound 10 µM)?
The viability, T/C was 0.18%.

What about the viability, T/C (second compound 0.1 µM, first compound 0.0316 µM) of the same molecule?
Its viability, T/C is 38.4%.

And the viability, T/C (second compound 0.1 µM, first compound 0.1 µM)?
Its viability, T/C is 15.5%.

And the viability, T/C (second compound 0.1 µM, first compound 0.316 µM)?
Its viability, T/C is 10.5%.

What about the viability, T/C (second compound 0.1 µM, first compound 1 µM) of the same molecule?
Its viability, T/C is 7.96%.

What about the viability, T/C (second compound 0.1 µM, first compound 3.16 µM) of the same molecule?
The viability, T/C was 5.89%.

And the viability, T/C (second compound 0.1 µM, first compound 10 µM)?
Its viability, T/C is 0.16%.

And the viability, T/C (second compound 0.316 µM, first compound 0.0316 µM)?
Its viability, T/C is 8.86%.

What about the viability, T/C (second compound 0.316 µM, first compound 0.1 µM) of the same molecule?
The viability, T/C was 8.74%.

And the viability, T/C (second compound 0.316 µM, first compound 0.316 µM)?
Its viability, T/C is 7.81%.

What about the viability, T/C (second compound 0.316 µM, first compound 1 µM) of the same molecule?
The viability, T/C was 6.39%.

And the viability, T/C (second compound 0.316 µM, first compound 3.16 µM)?
Its viability, T/C is 0.05%.

And the viability, T/C (second compound 0.316 µM, first compound 10 µM)?
Its viability, T/C is 0.05%.

What about the viability, T/C (second compound 1 µM, first compound 0.0316 µM) of the same molecule?
Its viability, T/C is 0.13%.

And the viability, T/C (second compound 1 µM, first compound 0.1 µM)?
The viability, T/C was 0.11%.

What about the viability, T/C (second compound 1 µM, first compound 0.316 µM) of the same molecule?
Its viability, T/C is 0.17%.

What about the viability, T/C (second compound 1 µM, first compound 1 µM) of the same molecule?
Its viability, T/C is 0.05%.

What about the viability, T/C (second compound 1 µM, first compound 3.16 µM) of the same molecule?
The viability, T/C was 0.48%.

And the viability, T/C (second compound 1 µM, first compound 10 µM)?
Its viability, T/C is 1.29%.

What about the viability, T/C (second compound 3.16 µM, first compound 0.0316 µM) of the same molecule?
Its viability, T/C is 1.25%.

And the viability, T/C (second compound 3.16 µM, first compound 0.1 µM)?
Its viability, T/C is 0.09%.

And the viability, T/C (second compound 3.16 µM, first compound 0.316 µM)?
The viability, T/C was 0.07%.

What about the viability, T/C (second compound 3.16 µM, first compound 1 µM) of the same molecule?
Its viability, T/C is 0.05%.

What about the viability, T/C (second compound 3.16 µM, first compound 3.16 µM) of the same molecule?
The viability, T/C was 0.27%.

What about the viability, T/C (second compound 3.16 µM, first compound 10 µM) of the same molecule?
Its viability, T/C is 0.95%.

And the viability, T/C (second compound 10 µM, first compound 0.0316 µM)?
The viability, T/C was 0.04%.

What about the viability, T/C (second compound 10 µM, first compound 0.1 µM) of the same molecule?
The viability, T/C was 0.26%.

And the viability, T/C (second compound 10 µM, first compound 0.316 µM)?
Its viability, T/C is 0.34%.

What about the viability, T/C (second compound 10 µM, first compound 1 µM) of the same molecule?
Its viability, T/C is 0.08%.

And the viability, T/C (second compound 10 µM, first compound 3.16 µM)?
Its viability, T/C is 0.95%.

What about the viability, T/C (second compound 10 µM, first compound 10 µM) of the same molecule?
The viability, T/C was 0.95%.
